Data taken from ChEMBL document CHEMBL1159269, “Mechanistic evaluation of new plant-derived compounds that inhibit HIV-1 reverse transcriptase” (J Nat Prod, 1995).

Experiments:
DNA polymerase beta = DNA polymerase beta (Homo sapiens, UniProt P06746); experiment: Inhibition of DNA polymerase beta
[1] = Inhibition of HIV2 reverse transcriptase p66/p51; set-up: species or system Human immunodeficiency virus 2
[2] = Inhibition of AMV reverse transcriptase; set-up: species or system Avian myeloblastosis virus
[3] = Inhibition of RNA polymerase
[4] = biological target: T1, Human immunodeficiency virus type 1 reverse transcriptase (Human immunodeficiency virus 1, UniProt Q72547); experiment: Inhibition of HIV1 reverse transcriptase p66/p51
DNA = experiment: Binding affinity to calf thymus DNA assessed as inhibition of DNA peak at 260 nm wavelength at 250 ug/ml by HPLC; format: nucleic-acid assay; settings: Bos taurus
KB = experiment: Cytotoxicity against human KB cells; format: functional; settings: read-out: ED50 (the source's name)
Lu1 = experiment: Cytotoxicity against human Lu1 cells; format: functional; settings: read-out: ED50 (the source's name)
LNCaP = experiment: Cytotoxicity against human LNCAP cells; format: functional; settings: read-out: ED50 (the source's name)
ZR-75-1 = experiment: Cytotoxicity against human ZR-75-1 cells; format: functional; settings: read-out: ED50 (the source's name)
[5] = biological target: T1, Human immunodeficiency virus type 1 reverse transcriptase; experiment: Inhibition of HIV1 reverse transcriptase p66/p51 using template-primer [oligo(dT)12-18 + poly(rA)] by competitive type inhibition assay
[6] = biological target: T1, Human immunodeficiency virus type 1 reverse transcriptase; experiment: Inhibition of HIV1 reverse transcriptase p66/p51 using TTP substrate by mixed type competitive inhibition assay
[7] = biological target: Human immunodeficiency virus type 1 reverse transcriptase (Human immunodeficiency virus 1) (UniProt Q72547); experiment: Inhibition of HIV1 reverse transcriptase p66/p51 at 200 ug/ml in presence of 250 ug/ml BSA
[8] = biological target: Human immunodeficiency virus type 1 reverse transcriptase (Human immunodeficiency virus 1) (UniProt Q72547); experiment: Inhibition of HIV1 reverse transcriptase p66/p51 at 200 ug/ml in presence of 1000 ug/ml BSA
[9] = biological target: Human immunodeficiency virus type 1 reverse transcriptase (Human immunodeficiency virus 1) (UniProt Q72547); experiment: Inhibition of HIV1 reverse transcriptase p66/p51 at 50 ug/ml in presence of 2.5 ug/ml BSA
[10] = biological target: Human immunodeficiency virus type 1 reverse transcriptase (Human immunodeficiency virus 1) (UniProt Q72547); experiment: Inhibition of HIV1 reverse transcriptase p66/p51 at 50 ug/ml in presence of 250 ug/ml BSA
[11] = biological target: Human immunodeficiency virus type 1 reverse transcriptase (Human immunodeficiency virus 1) (UniProt Q72547); experiment: Inhibition of HIV1 reverse transcriptase p66/p51 at 50 ug/ml in presence of 1000 ug/ml BSA
[12] = biological target: T1, Human immunodeficiency virus type 1 reverse transcriptase; experiment: Inhibition of HIV1 reverse transcriptase p66/p51 using template-primer [oligo(dT)12-18 + poly(rA)] by mixed type competitive inhibition assay
[13] = biological target: T1, Human immunodeficiency virus type 1 reverse transcriptase; experiment: Inhibition of HIV1 reverse transcriptase p66/p51 using TTP substrate by non-competitive inhibition type assay

Row | SMILES | IC50 (DNA polymerase beta) [µM] | IC50 [1] [µM] | IC50 [2] [µM] | IC50 [3] [µM] | IC50 [4] [µM] | inhibition (DNA) [%] | Ki [5] [µM] | Ki [6] [µM] | inhibition [7] [%] | inhibition [8] [%] | inhibition [9] [%] | inhibition [10] [%] | inhibition [11] [%] | Ki [12] [µM] | Ki [13] [µM] | EC50 (KB) [µg/mL] | EC50 (Lu1) [µg/mL] | EC50 (LNCaP) [µg/mL] | EC50 (ZR-75-1) [µg/mL]
1 | CCCc1cc(=O)oc2c3c(c4c(c12)OC(C)(C)C=C4)O[C@H](C)[C@@H](C)[C@@H]3O [CALANOLIDE A] |  |  |  |  | 1 |  |  |  |  |  |  |  |  |  |  |  |  |  | 
2 | COc1cc2c(ccc3c4cc(OC)c(OC)cc4c[n+](C)c23)cc1O |  |  |  |  |  | 100 |  |  |  |  |  |  |  |  |  |  |  |  | 
3 | COc1cc(O)c2c(=O)c3c(O)c(-c4c(O)c([C@@H]5O[C@H](CO)[C@@H](O)[C@H](O)[C@H]5O)c(O)c5c(=O)cc(-c6ccc(O)c(O)c6)oc45)cc(O)c3oc2c1 | 57.7 | 56.6 | 81 | 272 | 42.9 | 71 | 6.7 | 7.1 | 89 | 82 |  |  |  |  |  | > 20 | > 20 | > 20 | > 20
4 | CC1(C)CC[C@]2(C(=O)O)CC=C3[C@]4(C)CC[C@H]5C(C)(C)[C@@H](OC(=O)c6ccc(O)cc6)C[C@@H](O)[C@]5(C)[C@H]4CC[C@@]3(C)[C@H]2C1 | 2.2 | 59 | 15.1 | > 338 |  | 0 |  |  |  |  | 94 | 19 | 0.8 | 6.7 | 8.3 | > 20 | > 20 | > 20 | > 20

Now from value to compound, other results behind:

Row | IC50 (DNA polymerase beta) [µM] | IC50 [1] [µM] | IC50 [2] [µM] | IC50 [3] [µM] | IC50 [4] [µM] | inhibition (DNA) [%] | Ki [5] [µM] | Ki [6] [µM] | inhibition [7] [%] | inhibition [8] [%] | inhibition [9] [%] | inhibition [10] [%] | inhibition [11] [%] | Ki [12] [µM] | Ki [13] [µM] | SMILES | EC50 (KB) [µg/mL] | EC50 (Lu1) [µg/mL] | EC50 (LNCaP) [µg/mL] | EC50 (ZR-75-1) [µg/mL]
5 | > 20 | 0.2 | 0.43 | > 20 |  |  |  |  |  |  |  |  |  |  |  | Cc1cn([C@H]2C[C@H](N=[N+]=[N-])[C@@H](CO)O2)c(=O)[nH]c1=O [ZIDOVUDINE] |  |  |  | 
6 |  |  |  |  | 7.2 |  |  |  |  |  |  |  |  |  |  | CC1=C(C#C/C(C)=C/C=C/C(C)=C/C=C/C=C(C)/C=C/C=C(\C)C(=O)C[C@@]23O[C@]2(C)C[C@@H](O)CC3(C)C)C(C)(C)C[C@H](O)C1 [HALOCYNTHIAXANTHIN] |  |  |  | 
7 | 7.4 | 29.6 | 21.9 | 92.8 | 24.3 | 1.3 |  |  |  |  | 99 | 52 | 19 | 10 | 7.1 | C=C1C(=O)O[C@@H](CCCCCCCCCCCCC)[C@@H]1C(=O)O [PROTOLICHESTERINIC ACID] | > 20 | > 20 | > 20 | > 20
